Laboratory results from ChEMBL document CHEMBL3390842 (Medchemcomm, 2012).
Active and inactive are the calls of the source. The calls are words filed in the database; no cut-off is given here.

Legend:
[1] = biological target: T1, G-protein coupled receptor 35 (Homo sapiens, UniProt Q9HC97); test: Agonist activity at GPR35 in human HT-29 cells assessed as induction of whole cell dynamic mass redistribution at 32 uM after 50 mins by resonant waveguide grating biosensor analysis in presence of GPR35 antagonist ML-145; assay type: cell-based
[2] = biological target: T1, G-protein coupled receptor 35; assay type: cell-based, HT-29
[3] = biological target: T1, G-protein coupled receptor 35; assay type: cell-based, U2OS
[4] = biological target: T1, G-protein coupled receptor 35; test: Agonist activity at GPR35 in human HT-29 cells assessed as induction of whole cell dynamic mass redistribution at 128 uM after 50 mins by resonant waveguide grating biosensor analysis in presence of GPR35 antagonist ML-145; assay type: cell-based

T1 sequence (Q9HC97 whole entry): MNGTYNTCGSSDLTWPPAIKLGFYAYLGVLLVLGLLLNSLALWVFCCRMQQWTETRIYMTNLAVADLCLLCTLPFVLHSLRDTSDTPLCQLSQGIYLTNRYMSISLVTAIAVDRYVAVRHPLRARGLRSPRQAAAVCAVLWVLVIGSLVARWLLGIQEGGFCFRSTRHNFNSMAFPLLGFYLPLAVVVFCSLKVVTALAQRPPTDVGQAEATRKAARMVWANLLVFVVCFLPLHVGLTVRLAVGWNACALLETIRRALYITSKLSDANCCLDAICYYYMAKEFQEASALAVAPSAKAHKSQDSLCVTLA

Compound | Activity [1] | EC50 [2] | EC50 [3] | Activity [4]
O=[N+]([O-])c1cc(O)c(O)c([N+](=O)[O-])c1 | inactive | – | – | –
O=C(c1cc(O)c(O)c([N+](=O)[O-])c1)c1ccccc1F | Active | 8.66 µM | 54.4 µM | –
CC(=O)C(=Cc1cc(O)c(O)c([N+](=O)[O-])c1)C(C)=O [NITECAPONE] | – | 0.82 µM | 17.1 µM | –
O=[N+]([O-])c1ccc(O)c([N+](=O)[O-])c1 | – | – | – | Active
CCN(CC)C(=O)/C(C#N)=C/c1cc(O)c(O)c([N+](=O)[O-])c1 [ENTACAPONE] | – | 5.66 µM | 65.6 µM | –
